Laboratory results from patent publication US20240208992A1, “MACROCYCLES AS CFTR MODULATORS” (Idorsia Pharmaceuticals Ltd, priority 2021, published 2024).

Biological target: human F508del-CFTR (Homo sapiens, UniProt P13569, DEL508-508)
Test: F508del-CFTR cell surface expression (corrector activity), DiscoveRx ß-galactosidase complementation chemiluminescence assay in recombinant U2OS cell line;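 also: U2OS cells co-expressing ProLink-tagged F508del-CFTR and a membrane-anchored enzyme acceptor, where more surface CFTR restores β-galactosidase activity measured by chemiluminescence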
Conditions: for EC50: EC50, F508del-CFTR cell surface expression; for Emax: U2OS
[1] = U2OS cell line, 16h compound incubation, geomean values
[2] = in relation to the Emax of the corrector lumacaftor (=100%), U2OS cell line, 16h compound incubation, arithmetic mean values
[3] = U2OS cells, 16h compound incubation, geomean values
[4] = in relation to Emax of corrector lumacaftor (=100%), arithmetic mean values

human F508del-CFTR, sequence (P13569 with tags, fused parts or gaps DEL508-508): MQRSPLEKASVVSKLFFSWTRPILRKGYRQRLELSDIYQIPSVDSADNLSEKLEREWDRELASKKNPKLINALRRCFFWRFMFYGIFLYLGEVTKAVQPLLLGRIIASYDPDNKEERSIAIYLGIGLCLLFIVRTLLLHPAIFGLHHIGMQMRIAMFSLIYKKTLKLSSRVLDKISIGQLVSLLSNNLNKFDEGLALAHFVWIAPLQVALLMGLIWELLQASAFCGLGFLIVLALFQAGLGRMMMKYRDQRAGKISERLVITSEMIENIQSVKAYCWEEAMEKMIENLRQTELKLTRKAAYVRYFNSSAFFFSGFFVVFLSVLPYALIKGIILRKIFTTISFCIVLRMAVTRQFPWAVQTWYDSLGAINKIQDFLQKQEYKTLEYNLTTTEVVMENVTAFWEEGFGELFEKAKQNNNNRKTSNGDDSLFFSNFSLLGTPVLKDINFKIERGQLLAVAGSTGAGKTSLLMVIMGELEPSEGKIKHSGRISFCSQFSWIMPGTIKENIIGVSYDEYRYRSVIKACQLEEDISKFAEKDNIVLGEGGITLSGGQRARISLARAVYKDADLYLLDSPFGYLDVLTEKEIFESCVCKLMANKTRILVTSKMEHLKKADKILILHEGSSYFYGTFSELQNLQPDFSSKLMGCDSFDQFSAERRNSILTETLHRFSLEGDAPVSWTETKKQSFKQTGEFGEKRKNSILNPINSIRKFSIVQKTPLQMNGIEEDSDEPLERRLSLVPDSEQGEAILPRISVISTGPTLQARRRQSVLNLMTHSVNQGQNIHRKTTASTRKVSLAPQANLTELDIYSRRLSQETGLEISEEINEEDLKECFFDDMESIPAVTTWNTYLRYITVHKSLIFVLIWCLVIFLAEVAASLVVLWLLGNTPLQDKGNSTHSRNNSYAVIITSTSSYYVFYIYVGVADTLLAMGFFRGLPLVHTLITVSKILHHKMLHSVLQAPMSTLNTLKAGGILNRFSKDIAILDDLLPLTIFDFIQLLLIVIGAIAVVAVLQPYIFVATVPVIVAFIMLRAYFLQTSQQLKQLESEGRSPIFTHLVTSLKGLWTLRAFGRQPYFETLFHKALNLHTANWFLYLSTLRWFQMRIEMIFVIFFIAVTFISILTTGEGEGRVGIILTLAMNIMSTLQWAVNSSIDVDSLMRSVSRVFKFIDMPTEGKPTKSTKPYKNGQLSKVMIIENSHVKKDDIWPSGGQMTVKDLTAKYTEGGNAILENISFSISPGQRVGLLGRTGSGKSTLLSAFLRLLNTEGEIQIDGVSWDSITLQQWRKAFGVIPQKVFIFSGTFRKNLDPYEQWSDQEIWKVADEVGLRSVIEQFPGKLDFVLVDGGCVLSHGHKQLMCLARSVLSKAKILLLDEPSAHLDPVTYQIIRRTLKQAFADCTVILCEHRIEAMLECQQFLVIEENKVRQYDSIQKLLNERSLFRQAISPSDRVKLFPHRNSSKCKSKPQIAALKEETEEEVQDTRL

| SMILES | EC50 [3] | Emax [4] | other results |
| --- | --- | --- | --- |
| CC(C)C[C@H]1C(=O)N2CCOC[C@@H]2C(=O)N[C@H](Cc2ccccc2)COc2cnc3ccccc3c2C(=O)N[C@H](C(=O)NCCc2cc(C(C)(C)C)on2)CC(=O)N1C [Example 107, (9S,13S,19aR,22R)-22-benzyl-N-(2-(5-(tert-butyl)isoxazol-3-yl)ethyl)-13-isobutyl-12-methyl-7,11,14,20-tetraoxo-7,8,9,10,11,12,13,14,16,17,19,19a,20,21,22,23-hexadecahydro-[1,4]oxazino[3′,4′:6,7][1]oxa[4,7,10,14]tetraazacycloheptadecino[17,16-c]quinoline-9-carboxamide] | – | – | EC50 [1]: 794 nM; Emax [2]: 257% |
| CC(C)C[C@H]1C(=O)N2CCCC[C@@H]2C(=O)N[C@H](Cc2ccccc2)COc2ccc3c(c2C(=O)N[C@H](C(=O)NCCc2c(F)cccc2F)CC(=O)N1C)OCC3 [Example 491, (8S,12S,18aR,21R)-21-benzyl-N-(2,6-difluorophenethyl)-12-isobutyl-11-methyl-6,10,13,19-tetraoxo-3,4,6,7,8,9,10,11,12,13,16,17,18,18a,19,20,21,22-octadecahydro-15H-benzofuro[7,6-p]pyrido[2,1-f][1]oxa[4,7,10,14]tetraazacycloheptadecine-8-carboxamide] | 209 nM | 178% | – |
| COc1nccc2c1C(=O)N[C@H](C(=O)NCCc1noc(C3CC3)n1)CC(=O)N(C)[C@@H](CC(C)C)C(=O)N(C)[C@@H](CC1CCC(F)(F)CC1)C(=O)N[C@H](Cc1ccccc1)CO2 [Example 557, (3R,6S,9S,13S)-3-benzyl-N-(2-(5-cyclopropyl-1,2,4-oxadiazol-3-yl)ethyl)-6-((4,4-difluorocyclohexyl)methyl)-9-isobutyl-16-methoxy-7,10-dimethyl-5,8,11,15-tetraoxo-2,3,4,5,6,7,8,9,10,11,12,13,14,15-tetradecahydropyrido[3,4-p][1]oxa[4,7,10,14]tetraazacycloheptadecine-13-carboxamide] | 594 nM | 253% | – |
| CCc1nc(CCNC(=O)[C@@H]2CC(=O)N(C)[C@@H](CC(C)C)C(=O)N3CCCC[C@@H]3C(=O)N[C@H](Cc3ccccc3)COc3cnc4ccccc4c3C(=O)N2)no1 [Example 79, (9S,13S,19aR,22R)-22-benzyl-N-(2-(5-ethyl-1,2,4-oxadiazol-3-yl)ethyl)-13-isobutyl-12-methyl-7,11,14,20-tetraoxo-7,8,9,10,11,12,13,14,17,18,19,19a,20,21,22,23-hexadecahydro-16H-pyrido[2′,1′:6,7][1]oxa[4,7,10,14]tetraazacycloheptadecino[17,16-c]quinoline-9-carboxamide] | – | – | EC50 [1]: 327 nM; Emax [2]: 296% |
| COc1noc(CCNC(=O)[C@@H]2CC(=O)N(C)[C@@H](CC(C)C)C(=O)N(C)[C@H](Cc3nc(C(F)(F)F)no3)C(=O)N[C@H](Cc3ccccc3)COc3ccc4ncc(F)cc4c3C(=O)N2)n1 [Example 934, (3S,7S,10R,13R)-13-benzyl-20-fluoro-7-isobutyl-N-(2-(3-methoxy-1,2,4-oxadiazol-5-yl)ethyl)-6,9-dimethyl-1,5,8,11-tetraoxo-10-((3-(trifluoromethyl)-1,2,4-oxadiazol-5-yl)methyl)-1,2,3,4,5,6,7,8,9,10,11,12,13,14-tetradecahydro-[1]oxa[4,7,10,14]tetraazacycloheptadecino[16,17-f]quinoline-3-carboxamide] | – | – | EC50 (U2OS cells, 16h compound incubation, geomean of several measurements): 37 nM; Emax (in relation to the Emax of the corrector lumacaftor (=100%), U2OS cells, 16h compound incubation, arithmetic mean): 528% |
| COc1cccc(CCNC(=O)[C@@H]2CC(=O)N(C)[C@@H](CC(C)C)C(=O)N(C)CC(=O)N[C@H](Cc3ccccc3)COc3ccc4cc(C)oc4c3C(=O)N2)c1 [Example 531, (8R,14S,18S)-8-benzyl-14-isobutyl-N-(3-methoxyphenethyl)-2,12,15-trimethyl-10,13,16,20-tetraoxo-7,8,9,10,11,12,13,14,15,16,17,18,19,20-tetradecahydrobenzofuro[7,6-p][1]oxa[4,7,10,14]tetraazacycloheptadecine-18-carboxamide] | 265 nM | 336% | – |
| CC(C)C[C@H]1C(=O)N(C)C2(CCC2)C(=O)N[C@H](Cc2ccccc2)COc2cnc3ccc(F)cc3c2C(=O)N[C@H](C(=O)NCCc2nc(C3CC3)no2)CC(=O)N1C [Example 692, (3′S,7′S,13′R)-13′-benzyl-N-(2-(3-cyclopropyl-1,2,4-oxadiazol-5-yl)ethyl)-20′-fluoro-7′-isobutyl-6′,9′-dimethyl-1′,5′,8′,11′-tetraoxo-2′,3′,4′,5′,6′,7′,8′,9′,11′,12′,13′,14′-dodecahydro-1′H-spiro[cyclobutane-1,10′-[1]oxa[4,7,10,14]tetraazacycloheptadecino[17,16-c]quinoline]-3′-carboxamide] | 104 nM | 301% | – |

Now from value to molecule, other results behind:

| EC50 [3] | Emax [4] | SMILES | other results |
| --- | --- | --- | --- |
| 305 nM | 168% | CO[C@H]1C[C@]2(C1)C(=O)N[C@H](Cc1ccccc1)COc1ccc3ccccc3c1C(=O)N[C@H](C(=O)NCCc1ccc(-n3nccn3)cc1)CC(=O)N(C)[C@@H](CC(C)C)C(=O)N2C [Example 492, (1r,3S,3′S,7′S,13′R)-N-(4-(2H-1,2,3-triazol-2-yl)phenethyl)-13′-benzyl-7′-isobutyl-3-methoxy-6′,9′-dimethyl-1′,5′,8′,11′-tetraoxo-2′,3′,4′,5′,6′,7′,8′,9′,11′,12′,13′,14′-dodecahydro-1′H-spiro[cyclobutane-1,10′-naphtho[1,2-p][1]oxa[4,7,10,14]tetraazacycloheptadecine]-3′-carboxamide] | – |
| 677 nM | 211% | Cc1cc(CCNC(=O)[C@@H]2CC(=O)N(C)[C@@H](CC(C)C)C(=O)N3CCCC[C@@H]3C(=O)N[C@H](Cc3ccccc3)COc3ccc4c(c3C(=O)N2)OCC4)on1 [Example 455, (8S,12S,18aR,21R)-21-benzyl-12-isobutyl-11-methyl-N-(2-(3-methylisoxazol-5-yl)ethyl)-6,10,13,19-tetraoxo-3,4,6,7,8,9,10,11,12,13,16,17,18,18a,19,20,21,22-octadecahydro-15H-benzofuro[7,6-p]pyrido[2,1-f][1]oxa[4,7,10,14]tetraazacycloheptadecine-8-carboxamide] | – |
| 325 nM | 360% | COc1cc(CCNC(=O)[C@@H]2CC(=O)N(C)[C@@H](CC(C)C)C(=O)N(C)[C@H](CC(F)(F)F)C(=O)N[C@H](Cc3ccccc3)COc3ccnc(OC)c3C(=O)N2)on1 [Example 776, (3R,6R,9S,13S)-3-benzyl-9-isobutyl-16-methoxy-N-(2-(3-methoxyisoxazol-5-yl)ethyl)-7,10-dimethyl-5,8,11,15-tetraoxo-6-(2,2,2-trifluoroethyl)-2,3,4,5,6,7,8,9,10,11,12,13,14,15-tetradecahydropyrido[3,4-p][1]oxa[4,7,10,14]tetraazacycloheptadecine-13-carboxamide] | – |
| 875 nM | 216% | CC(C)C[C@H]1C(=O)N2CCCC[C@H]2C(=O)N[C@H](Cc2ccccc2)COc2ccc3ncc(F)cc3c2C(=O)N[C@H](C(=O)NCCc2cc(C3CC3)no2)CC(=O)N1C [Example 777, (9S,13S,19aS,22R)-22-benzyl-N-(2-(3-cyclopropylisoxazol-5-yl)ethyl)-5-fluoro-13-isobutyl-12-methyl-7,11,14,20-tetraoxo-7,8,9,10,11,12,13,14,17,18,19,19a,20,21,22,23-hexadecahydro-16H-pyrido[2′,1′:6,7][1]oxa[4,7,10,14]tetraazacycloheptadecino[16,17-f]quinoline-9-carboxamide] | – |
